Source: patent US9586985B2, “Organic compounds as proantigens for natural killer T cells” (Callaghan Innovation Research Limited, priority 2012, dated 2017)

Legend:
[1] = test system: human NKT cells; test: Proliferation of human NKT cells in PBMC culture; format: cell-based; conditions: 7 days culture with IL-2, one donor, FIG. 6
Method: PBMC from one donor are cultured for 7 days with different doses of the indicated compounds in the presence of IL-2, and then the percentages of NKT cells in the final cultures determined by flow cytometry with fluorescent α-GalCer-loaded CD1d tetramers and anti-CD3. Data are expressed as percentage of NKT cells (α-GalCer/CD1d tetramer and anti-CD3-binding cells) of total T cells (all anti-CD3-binding cells).
Peripheral blood is drawn into heparinized tubes, diluted 1:1 in PBS, and layered over a sodium diatrizoate and polysaccharide solution (Lymphoprep; Axis-Shield, Oslo, Norway) before centrifugation at 800×g for 25 minutes at room temperature to collect the peripheral blood mononuclear cell (PBMC) fraction, which contains NKT cells. To assess proliferation of NKT cells, PBMC (2×10^5 per well) are cultured at 37° C. in Iscove's Modified Dulbecco's Medium with 5% human AB serum and the indicated concentrations of α-GalCer, or the compounds of the invention, with recombinant human IL-2 50 U/mL (Chiron Corporation, Emeryville, Calif.) added after 24 hours. After 7 days of culture, the cells are analysed by flow cytometry, using fluorescent soluble CD1d tetramers that have been loaded with α-GalCer to identify the NKT cells. […]

[2] = test system: B16.OVA melanoma cells; test: Anti-tumour activity against subcutaneous B16.OVA tumours, given with OVA protein; format: in vivo, C57BL/6 mice; conditions: i.v. with 200 μg OVA protein seven days after tumour challenge
Method: Progression of subcutaneous B16.OVA tumours is monitored in animals that are treated seven days after tumour challenge with intravenous OVA protein together with the indicated compounds, or treated with PBS. The mean tumour sizes per group (n=5)±SEM are shown.
Progression of subcutaneous B16.OVA tumours is monitored in animals that are treated seven days after tumour challenge with intravenous OVA protein together with the indicated compounds, or treated with PBS. The mean tumour sizes per group (n=5)±SEM are shown. […] (Compound CN158A=CN158 in water.)
Groups of C57BL/6 mice (n=5) receive a subcutaneous injection into the flank of 1×10^5 B16.OVA melanoma cells, which express a cDNA encoding the chicken ovalbumin (OVA) sequence. The different groups are treated 7 days later, when tumours are fully engrafted, by intravenous injection of one of the following; 200 μg OVA protein together with 200 ng α-GalCer, 200 μg OVA protein together with 200 ng of a compound of the invention, or PBS. Mice are monitored for tumour growth every 3-4 days, and tumour size for each group is calculated as the mean of the products of bisecting diameters (±SEM). Measurements are terminated for each group when the first animal develops a tumour exceeding 200 mm^2.

[3] = HPLC-ESI-MSMS quantification of α-GalCer in test samples; format: physicochemical; conditions: freshly reconstituted formulated sample; estimated maximum level
Method: Quantification of the amount of α-GalCer in various test samples of compounds of the invention is made by HPLC-ESI-MSMS analysis using a Waters 2795 HPLC and a Waters Q-TOF Premier™ Tandem Mass Spectrometer. The chromatography used a Phenomenex Kinetex C18 […] 3.0×50 mm column eluting with isocratic methanol containing 10 mM ammonium formate+0.5% formic acid at a flow rate of 0.2 mL/min. α-GalCer is monitored by selective reactant monitoring of 858.7 to 696.7 Da. The estimate of amount of α-GalCer is made by comparison of ion count integrals to a standard curve run on the same day or by comparison to test samples spiked with a known amount of α-GalCer.
The level of α-GalCer is determined on freshly reconstituted formulated samples unless otherwise stated. The estimated maximum level of α-GalCer for key compounds is given below.

[4] = test system: cytokines IL-12p70, IL-4 and IFN-g; test: Cytokine release into serum after injection (cytokine bead array); format: in vivo, C57BL/6 mice
Method: (§1) Groups of C57BL/6 mice (n=3 per group) are injected intravenously with 200 ng of the indicated compounds, and then the serum is collected at the indicated times for analysis of cytokine levels by cytokine bead array technology.
as §1, with “ng of α-GalCer or an equivalent molar amount” for “ng”, “technology. (Compound CN158A1b=CN158 formulated in accordance with Example 15; Compound CN158A=CN158 in water.)” for “technology.”
Blood is collected from the lateral tail vein at different time intervals after glycolipid administration. Serum is collected after blood has clotted, and levels of cytokines IL-12p70, IL-4 and IFN-g are assessed by cytokine bead array technology (Bioplex, Biorad), according to the manufacturer's instructions.

Structure (SMILES): CCCCCCCCCCCCCCCCCCCCCCCCCC(=O)O[C@H](CCCCCCCCCCCCCC)[C@@H](O)[C@H](CO[C@H]1O[C@H](CO)[C@H](O)[C@H](O)[C@H]1O)NC(=O)OCOC(=O)C(C)(C)C [CN145, (2S,3S,4R)-1-O-α-D-Galactopyranosyl-4-O-hexacosanoyl-2-(pivaloyloxymethoxycarbonylamino) octadecane-1,3,4-triol]
- expansion of human NKT cells from PBMC [1]: able to induce the expansion of human NKT cells
- anti-tumour activity: growth of established B16.OVA tumours [2]: equally beneficial in promoting immune responses that suppress growth of established tumours
- Max α-GalCer (ppm) [3]: 40 ppm
- Max α-GalCer/injection [3]: 0.008 ng
- cytokine profile in vivo compared to α-GalCer ([4]; 200 ng i.v. or molar equivalent, FIGS. 3 and 8): different cytokine profiles
- course of IL-12p70 level in serum ([4]; 200 ng i.v., FIG. 3): still increasing through 6 to 12 h
- ratio of IFN-γ to IL-4 in serum compared to α-GalCer ([4]; 200 ng i.v., FIG. 3): higher ratio of IFN-γ to IL-4 than that of α-GalCer
- overall levels of systemic cytokine production ([4]; 200 ng α-GalCer or equivalent i.v., FIGS. 3 and 8): not as potent as α-GalCer in terms of overall levels of cytokine production
